Test results: patent publication US10059699B2, “Tetrahydroquinoline derivatives as bromodomain inhibitors” (GlaxoSmithKline Intellectual Property (No.2) Limited, priority 2014, dated 2018)
Where two headings read alike, the source gives them in different places.

Tests used:
[1] = system: NUT midline carcinoma cells (11060); assay: Cancer cell line proliferation assay, 11060; assay type: cell-based; conditions: 11060 cells, 72 hours, CellTiter Glo, n = 3
Experimental: (§1) The impact of the compound of Examples 7 and 14 on cancer cell proliferation was determined using patient derived NUT midline carcinoma cells (11060), multiple myeloma cells (OPM-2, DSMZ) and biphenotypic B myelomonocytic leukaemia cells (MV-4-11, ATCC) in a 72 hour proliferation assay. 11060 and OPM-2 cells were maintained in RPMI 1640 medium (Invitrogen) supplemented with 10% HI-FBS (Heat-Inactivated Fetal Bovine Serum, Hyclone) and 2 mM L-glutamine (Invitrogen) at 37° C. and an atmosphere of 5% CO2. MV-4-11 cells were maintained in IMDM media supplemented with 10% HI-FCS, 2 mM L-glutamine, 1× Non-essential amino acids (Invitrogen) and 1× sodium pyruvate (1 mM) (Invitrogen). Cells were diluted to 1.11×10^5 cells/mL and 90 μL/well plated into black sided, clear bottomed 96 well tissue culture plates (Corning), using growth media supplemented with penicillin/streptomycin (Invitrogen). Cells were incubated overnight at 37° C. and in one plate, ATP levels were measured using the CellTiter Glo assay (Promega) according to the manufacturer's instructions, to give a baseline reading (t=0). 3-fold serial dilutions of compounds ranging from 6 mM to 0.3 μM were prepared in 100% DMSO. The DMSO dilution series was diluted 20-fold in growth media before 10 μl of the resulting dilutions were added to the appropriate wells of the remaining cell plates. The final compound concentrations in the wells ranged from 30 μM to 1.5 nM in 0.5% DMSO. Cells were incubated with compounds for 72 hours before assaying for ATP content using CellTiter Glo (t=72). CellTiter Glo data from each t=72 time point was normalised to the relevant t=0 time point data, and expressed as % t=0.

[2] = system: multiple myeloma cells (OPM-2); assay: Cancer cell line proliferation assay, OPM-2; assay type: cell-based; conditions: Homo sapiens, OPM-2 cells, 72 hours, CellTiter Glo, n = 2
Experimental: as §1

[3] = system: biphenotypic B myelomonocytic leukaemia cells (MV-4-11); assay: Cancer cell line proliferation assay, MV-4-11; assay type: cell-based; conditions: Homo sapiens, MV4-11, MV-4-11 cells, 72 hours, CellTiter Glo, n = 3
Experimental: as §1

[4] = system: Bromodomains BRD2, BRD3, BRD4 and BRDT; assay: Fluoroligand affinity for mutated vs non-mutated bromodomain; design: species or system Human; conditions: single residue mutations in the acetyl lysine binding pocket
Experimental: The binding of the compounds of formulae (I)-(XVI) to Bromodomains BRD2, BRD3, BRD4 and BRDT was assessed using mutated proteins to detect differential binding to either Binding Domain 1 (BD1) or Binding Domain 2 (BD2) on the bromodomain. These single residue mutations in the acetyl lysine binding pocket greatly lower the affinity of the fluoroligand (Reference Compound X) for the mutated domain (>1000 fold selective for the non-mutated domain). Therefore in the final assay conditions, binding of the fluoroligand to the mutated domain cannot be detected and subsequently the assay is suitable to determine the binding of compounds to the single non-mutated bromodomain. […]

[5] = full curve fit, read-out: Cellular Proliferation: pIC50 (converted)
[6] = read-out: Cellular Proliferation: gpIC50 (converted)

IC50 [1, 5] [nM] | IC50 [1, 6] [nM] | IC50 [2, 5] [nM] | IC50 [2, 6] [nM] | IC50 [3, 5] [nM] | IC50 [3, 6] [nM] | SMILES | selectivity for the non-mutated domain over the mutated domain [4] [fold]
631 | 398 | 100 | 50.1 | 200 | 158 | CC(=O)N1c2ccc(C(N)=O)cc2[C@H](Nc2ncc(Cl)cn2)[C@@H](C)[C@@H]1C [Example 7, (2S,3R,4R)-1-acetyl-4-((5-chloropyrimidin-2-yl)amino)-2,3-dimethyl-1,2,3,4-tetrahydroquinoline-6-carboxamide] | –
– | – | – | – | – | – | COc1ccc2c(c1)C(c1ccc(Cl)cc1)=N[C@@H](CC(=O)NCCCCCNC(=O)CCCCCC1(C)/C(=C/C=C/C=C/C3=[N+](CCCCS(=O)(=O)O)c4ccc(S(=O)(=O)O)cc4C3(C)C)N(CCCCS(=O)(=O)[O-])c3ccc(S(=O)(=O)O)cc31)c1nnc(C)n1-2 (stereo partly shown) [Reference Compound X] | > 1000
